# Assay results: PubChem BioAssay AID1645848
# Details: buffer; pH 7.4; 6.0 h; 150.0 µM
row,solubility kinetic,SMILES
1,> 39 µg/mL,Nc1nccc2c1ncn2[C@@H]1C=C(CO)[C@@H](O)[C@H]1O
2,< 1 µg/mL,Cc1ccc(SC2=NS(=O)(=O)c3ccccc32)c(C)c1
3,< 1 µg/mL,N#C/C(=C\c1ccc(-c2ccc(C(=O)O)cc2)o1)c1nc2ccccc2[nH]1
4,> 51 µg/mL,COc1ccc(-n2nc(C3CCCN(C(=O)C4CC4)C3)[nH]c2=O)cc1 (centres undefined)
5,< 1 µg/mL,O=[N+]([O-])c1ccc(-c2nc(Nc3ccc(F)c(F)c3)c3ccccc3n2)cc1
6,3.85 µg/mL,CCN(CC)S(=O)(=O)c1ccc(N2CCOCC2)c(NC(=O)c2[nH]c(C)c(C(C)=O)c2C)c1
7,< 1 µg/mL,NC(=O)C1CCN(c2nc(-c3ccc(OC(F)(F)F)cc3)cs2)CC1
8,< 1 µg/mL,O=C(Nc1nc2cc(C(F)(F)F)ccc2s1)c1ccc(-c2cccc([N+](=O)[O-])c2)o1
9,< 1 µg/mL,Cc1cc(C)cc(C(=O)Nc2ccc3c(N4CCCC4)ncnc3c2)c1
10,< 1 µg/mL,CCOc1ccc(N2C(=O)c3n[nH]c(-c4cccs4)c3C2c2cccc(F)c2)cc1 (centres undefined)
11,1.7 µg/mL,NC(=O)C1CCN(c2nc(-c3ccc([N+](=O)[O-])cc3)cs2)CC1
12,< 1 µg/mL,Fc1ccccc1Nc1nc(-c2ccncc2)nc2ccccc12
13,2 µg/mL,CCOC(=O)N1CCc2c(sc(NCc3ccc(N(C)C)cc3)c2C(=O)Nc2ccc(OC)cc2)C1
14,> 35 µg/mL,Cc1cc(Oc2ccc(N)cn2)ccc1Cl
15,35.3 µg/mL,Cc1cc(-c2nnc3n2CCCCC3)c(C)n1-c1ccc(F)cc1
16,40.8 µg/mL,O=C(NC1CCCc2c1cnn2-c1ccc(O)cc1)c1ccccn1 (centres undefined)
17,17.9 µg/mL,CCc1ccc(OC(C)C(=O)N2CCC(c3nc4ccccc4o3)CC2)cc1 (centres undefined)
18,< 1 µg/mL,O=C1CCCC2=C1C(c1[nH]ncc1Cl)N=C(Nc1nc3c(Br)cccc3o1)N2 (centres undefined)
19,> 48 µg/mL,O=C(N/N=C/c1ccc(Sc2ccccn2)o1)c1ccncc1
20,> 67 µg/mL,Cc1cc(S(=O)(=O)Nc2cnccc2C(=O)Nc2nc(-c3ccccc3)cs2)c(C)o1
21,< 1 µg/mL,O=C(NCc1ccccc1)c1nc(S(=O)(=O)Cc2ccc(F)cc2)ncc1Cl
22,< 1 µg/mL,CC(C)(C)C1CCc2nc(NC(=O)c3cccc(Cl)c3)sc2C1 (centres undefined)
23,8.98 µg/mL,CC(=O)c1c(C)[nH]c(C(=O)Nc2cccc([S+](=O)([O-])N3CCC(F)(F)CC3)c2)c1C
24,< 1 µg/mL,O=C(Nc1ccc(OC(F)(F)F)cc1)c1sccc1NCc1ccnc2ccccc12

row,solubility kinetic,SMILES
1,< 1 µg/mL,O=C(Nc1ncc(Cc2cccc(C(F)(F)F)c2)s1)c1ccc(-c2cccc([N+](=O)[O-])c2)o1
2,> 76 µg/mL,COc1ccc(CCNC(=O)c2cc3c(=O)n4ccccc4nc3n(CCCN3CCOCC3)c2=N)cc1
3,23.2 µg/mL,Cc1ccc(-n2ncc(C(=O)NCCN3CCC(Cc4ccccc4)CC3)c2C2CCN(C(=O)OC(C)(C)C)CC2)cc1
4,12.8 µg/mL,COC(=O)c1ccnc(-c2cc(C(=O)Nc3ccc(C4(N)CC4)cc3)ccn2)c1
5,< 1 µg/mL,COc1cccc(N2CCN(c3ncc4c(n3)CCN(Cc3ccc(Br)cc3)C4)CC2)c1
6,< 1 µg/mL,Oc1ccc(C(=S)N2CCN(c3cccc(Cl)c3)CC2)cc1
7,49.7 µg/mL,CN1CCN(C(=O)c2ccc3cc(CCNc4ncnc5ccc(C#N)cc45)ccc3c2)CC1
8,< 1 µg/mL,CCC(=O)N1CCN(c2ccc(-n3c(=O)ccc4cnc5ccc(-c6cnc7ccccc7c6)cc5c43)cc2C(F)(F)F)CC1
9,< 1 µg/mL,O=C(Nc1ncc(Cc2ccc(C(F)(F)F)cc2)s1)c1cnc(-c2ccccc2)o1
10,0.705 µg/mL,Fc1ccc(-c2csc3ncnc(Sc4nnnn4-c4ccccc4)c23)cc1
11,> 49 µg/mL,CC(=O)c1cccc(-c2csc(N3CCC(C(N)=O)CC3)n2)c1
12,> 27 µg/mL,Cc1ccccc1OCC(O)CO (centres undefined)
13,1.79 µg/mL,Oc1ccc(CN2CC(CNc3ccccc3)C3(C2)CN(c2ccccc2)C3)cc1 (centres undefined)
14,< 1 µg/mL,Cc1ccc(S(=O)(=O)Nc2cc(Br)ccc2C(=O)Nc2nc(-c3ccccc3)cs2)cc1
15,< 1 µg/mL,Fc1cc(-c2nc(Nc3ccc(F)c(F)c3)c3ccccc3n2)ccn1
16,< 1 µg/mL,Cc1cc(Br)ccc1NC(=O)C(NS(=O)(=O)c1cccs1)c1ccccc1 (centres undefined)
17,< 1 µg/mL,CSc1ccc(-c2cnc(N3CCC(C(N)=O)CC3)s2)cc1
18,< 1 µg/mL,CCn1c(=NC(=O)c2ccc(S(=O)(=O)N3CCCCC3)cc2)sc2cccc(OC)c21
19,15.4 µg/mL,Cc1ccc(S(=O)(=O)Nc2cnccc2C(=O)Nc2nc(-c3cccc(C)c3)cs2)cc1
20,< 1 µg/mL,O=S(=O)(Nc1ccc(-c2cccnc2)c2cccnc12)c1cccc(C(F)(F)F)c1
21,> 67 µg/mL,Cc1cc(NS(=O)(=O)c2ccc(N(C)C(=O)Cc3ccc(Cl)c(Cl)c3)cc2)no1
22,< 1 µg/mL,Cc1cnc(-c2ccccc2C2CC2)nc1NCc1ccc(-c2cccnc2)cc1
23,< 1 µg/mL,CCOc1ccccc1C(=O)Nc1ncccc1C(=O)Nc1cccc(S(=O)(=O)C(F)(F)F)c1
24,3 µg/mL,CCOc1ccc(NC(=O)c2cccc(-n3cccc3)c2)cc1S(=O)(=O)N1CCOCC1

row,solubility kinetic,SMILES
1,73 µg/mL,CC(C)N(CCCNC(=O)Nc1ccc(C(C)(C)C)cc1)C[C@H]1O[C@@H](n2cc(Br)c3c(N)ncnc32)[C@H](O)[C@@H]1O
2,13.3 µg/mL,CN(C)S(=O)(=O)c1cccc(NC(=O)c2ccc[nH]2)c1
3,< 1 µg/mL,Cc1ccc(S(=O)(=O)N2CCN(C(=O)c3cc4c(s3)CCC4)CC2)cc1
4,> 24 µg/mL,Cc1nc(N)nc2ccccc12
5,< 1 µg/mL,COc1c(C)cc(NC(=O)c2nn(Cc3ccc(F)cc3)c3c2CN(C(=O)c2ccc[nH]2)C[C@]3(C)C(N)=O)cc1C
6,> 58 µg/mL,COc1cccc(O)c1CNc1ccc(S(=O)(=O)Nc2nccs2)cc1
7,18.7 µg/mL,CN1CCN(C2=Nc3ccccc3Sc3ccc(Cl)cc32)CC1
8,40.8 µg/mL,CNC(=O)C1CCN(C(=O)c2ccc(-c3ncc4cnc(-c5ccccc5)cn34)cc2)CC1
9,7.25 µg/mL,CC1CC(C)(C)N(C(=O)CN2C(=O)c3ccccc3C2=O)c2ccccc21 (centres undefined)
10,< 1 µg/mL,COc1ccc(NC(=O)c2ccc[nH]2)cc1S(=O)(=O)Nc1ccc(Br)cc1
11,< 1 µg/mL,CCOc1cccc(C(=O)Nc2nc3c(s2)CC(C(C)(C)C)CC3)c1 (centres undefined)
12,11.6 µg/mL,NC(=O)C1CCN(c2ncc(-c3cccc(N4CCCC4)c3)s2)CC1
13,< 1 µg/mL,COc1ccc(Nc2nc(-c3cccc(OC)c3)no2)cc1
14,42.6 µg/mL,CN(C)c1cccc(-c2nc(N3CCC(C(N)=O)CC3)ncc2F)c1
15,> 51 µg/mL,Cc1ccc(-n2ncc3c(Nc4cccc(C(=O)O)c4)ncnc32)cc1
16,27.3 µg/mL,O=c1c(-c2ccc(O)cc2)coc2cc(O)cc(O)c12
17,< 1 µg/mL,O=C(Nc1ccc(F)c(C(F)(F)F)c1)Nc1nnc(-c2ccncc2)s1
18,34.6 µg/mL,CC1=C(C(=O)Nc2nncs2)C(c2[nH]ncc2Cl)N=C(Nc2nc3ccccc3o2)N1 (centres undefined)
19,1.18 µg/mL,O=c1cc(CSc2ccc(Cl)cc2)nc(-c2ccccn2)[nH]1
20,4.11 µg/mL,C[C@H]1CN(C(=O)Nc2ccc(F)cc2)C[C@@H]1c1nc(-c2ccccc2)no1
21,1.11 µg/mL,Cn1c(C(=O)NCCc2ccccn2)nc2nc(-c3ccccc3)c(Cl)cc21
22,8.67 µg/mL,Cc1ccc(C(=O)N2CCc3c(nc4cc(-c5ccccc5)[nH]n4c3=O)C2)cn1
23,< 1 µg/mL,Cc1cc(-c2nc(Nc3ccc(F)c(F)c3)c3ccccc3n2)cc(C)n1
24,22.2 µg/mL,CCCCN1CCC[C@H]1CNC(=O)c1cc(C#N)c2ccccc2c1OC

row,solubility kinetic,SMILES
1,> 75 µg/mL,c1ccc(Nc2cc3c(cn2)CN(Cc2ccsc2)CCN3)cc1
2,> 68 µg/mL,CCOC(=O)N1CCN(Cc2nc3c(c(=O)n(C)c(=O)n3C)n2Cc2ccc(F)cc2)CC1
3,< 1 µg/mL,COc1cc(-c2nc(-c3ccccc3)c(-c3cccs3)[nH]2)cc(OC)c1O
4,30.4 µg/mL,COc1ccc(-c2ccc(C(=O)NC3CC(c4cc(=O)[nH]c(N)n4)C3)o2)cc1 (centres undefined)
5,< 1 µg/mL,COc1cc(-c2nc(Nc3ccc(F)c(F)c3)c3ccccc3n2)cc(OC)n1
6,< 1 µg/mL,COc1ccc(Nc2nc(-c3ccncc3)nc3ccccc23)cc1F
7,< 1 µg/mL,CCCCCn1cc2c(c1-c1ccc(Br)cc1)c(=O)n(C)c(=O)n2C
8,< 1 µg/mL,Cc1ccc(-c2cc(C(=O)Nc3ccncc3)c3ccccc3n2)cc1
9,38.5 µg/mL,Cc1noc(C)c1-c1ccc(-c2cc(C(N)=O)c(NC(N)=O)s2)c(O[C@H]2CCNC2)c1
10,< 1 µg/mL,Cn1c2ccccc2c2c3c(c4c5ccccc5n(CCC#N)c4c21)CNC3=O
11,< 1 µg/mL,O=C(Nc1cccc(C(F)(F)F)c1)Nc1cc(S(=O)(=O)NC2CC2)ccc1-c1ccsc1
12,41.7 µg/mL,CC(C)Oc1cccc(-c2csc(N3CCC(C(N)=O)CC3)n2)c1
13,< 1 µg/mL,CC1=C(C(=O)NC2CCCCC2)C(c2ccccc2Br)N=C(Nc2nc3ccccc3o2)N1 (centres undefined)
14,< 1 µg/mL,O=C(Nc1cc(Cc2ccccc2)ccn1)c1ccc(-c2cccc([N+](=O)[O-])c2)o1
15,> 48 µg/mL,CN(C)c1cccc(-c2ncnc(N3CCC(C(N)=O)CC3)n2)c1
16,34.6 µg/mL,Cc1cc(F)ccc1S(=O)(=O)Nc1cnccc1C(=O)Nc1nc(-c2ccccc2)cs1
17,2.61 µg/mL,COc1ccccc1CNS(=O)(=O)c1ccc(-c2cnc(C3CC3)o2)cc1
18,> 62 µg/mL,CNC(=O)c1ccc(-c2cnc3cnc(C(=O)N(C)c4ccc(Cl)cc4)cn23)cc1
19,< 1 µg/mL,O=C(Nc1ccc(-c2nc3cc(NC(=O)c4ccccc4Cl)ccc3o2)cc1)c1ccccc1Cl
20,< 1 µg/mL,CC1(C)CC2CC(C)(CN2S(=O)(=O)c2ccc(C(=O)Nc3cccc(S(=O)(=O)N4CCOCC4)c3)cc2)C1 (centres undefined)
21,< 1 µg/mL,Cc1ccc(NC(=O)c2cc(-c3ccc(C)o3)nc3ccccc23)nc1
22,1.57 µg/mL,CCOc1ccccc1C(=O)Nc1ccccc1C(=O)Nc1cccc(S(=O)(=O)C(F)(F)F)c1

row,SMILES,solubility kinetic
1,Oc1cccc2nc3ccccc3nc12,> 29 µg/mL
2,CN[C@@H]1C[C@@H](c2ccc(Cl)c(Cl)c2)c2ccccc21,> 43 µg/mL
3,CCOc1ccc(CCNC(=O)c2cc3ccncc3n2Cc2cccc(C)n2)cc1OCC,> 68 µg/mL
4,CCOc1ccc(CCNC(=O)c2cc3ncccc3n2Cc2cccc(C)n2)cc1OCC,> 68 µg/mL
5,O=C(O)CNC(=O)c1c(O)c2ccccc2n(Cc2ccccc2)c1=O,> 52 µg/mL
